Experimental data reported in the NIST ThermoML archive (doi:10.1021/je500513b).

Test: mn = molality of the nth substance listed, in mol/kg
Details: for surface tension liquid-gas: Pendant drop shape; for electrical conductivity: 100 kPa, Liquid, Mettler Toledo inLab 710

CCCCCCCCCCCC[N+](C)(C)CCCC[N+](C)(C)CCCCCCCCCCCC.[Br-].[Br-] + O
Details | electrical conductivity [S/m] | surface tension liquid-gas [mN/m]
298.15 K, m1 = 0.0001 | – | 60.26
298.15 K, m1 = 0.0002 | – | 54.58
298.15 K, m1 = 0.0004 | – | 47.36
298.15 K, m1 = 0.0006 | – | 42.42
298.15 K, m1 = 0.0007 | – | 40.35
298.15 K, m1 = 0.0008 | – | 38.82
298.15 K, m1 = 0.00085 | – | 38.23
298.15 K, m1 = 0.0009 | – | 36.43
298.15 K, m1 = 0.001 | – | 35.92
298.15 K, m1 = 0.0011 | – | 35.45
298.15 K, m1 = 0.0012 | – | 35.19
298.15 K, m1 = 0.0015 | – | 35.13
298.15 K, m1 = 0.002 | – | 35.1
298.15 K, m1 = 0.56 | 1.13 | –
298.15 K, m1 = 0.59 | 1.2 | –
298.15 K, m1 = 0.63 | 1.28 | –
298.15 K, m1 = 0.67 | 1.36 | –
298.15 K, m1 = 0.7 | 1.42 | –
298.15 K, m1 = 0.74 | 1.5 | –
298.15 K, m1 = 0.78 | 1.57 | –
298.15 K, m1 = 0.83 | 1.66 | –
298.15 K, m1 = 0.87 | 1.73 | –
298.15 K, m1 = 0.91 | 1.79 | –
298.15 K, m1 = 0.95 | 1.86 | –
298.15 K, m1 = 1 | 1.93 | –
298.15 K, m1 = 1.05 | 2 | –
298.15 K, m1 = 1.11 | 2.06 | –
298.15 K, m1 = 1.18 | 2.13 | –
298.15 K, m1 = 1.25 | 2.2 | –
298.15 K, m1 = 1.33 | 2.25 | –
298.15 K, m1 = 1.43 | 2.32 | –
298.15 K, m1 = 1.54 | 2.39 | –
298.15 K, m1 = 1.67 | 2.46 | –
298.15 K, m1 = 1.82 | 2.53 | –
298.15 K, m1 = 2 | 2.63 | –
303.15 K, m1 = 0.57 | 1.32 | –
303.15 K, m1 = 0.63 | 1.43 | –
303.15 K, m1 = 0.67 | 1.53 | –
303.15 K, m1 = 0.7 | 1.61 | –
303.15 K, m1 = 0.74 | 1.69 | –
303.15 K, m1 = 0.78 | 1.78 | –
303.15 K, m1 = 0.83 | 1.86 | –
303.15 K, m1 = 0.87 | 1.93 | –
303.15 K, m1 = 0.91 | 2.01 | –
303.15 K, m1 = 0.95 | 2.1 | –
303.15 K, m1 = 1 | 2.18 | –
303.15 K, m1 = 1.05 | 2.25 | –
303.15 K, m1 = 1.11 | 2.34 | –
303.15 K, m1 = 1.18 | 2.41 | –
303.15 K, m1 = 1.25 | 2.47 | –
303.15 K, m1 = 1.33 | 2.56 | –
303.15 K, m1 = 1.43 | 2.63 | –
303.15 K, m1 = 1.54 | 2.72 | –
303.15 K, m1 = 1.67 | 2.8 | –
303.15 K, m1 = 1.74 | 2.84 | –
303.15 K, m1 = 2 | 2.99 | –
308.15 K, m1 = 0.56 | 1.42 | –
308.15 K, m1 = 0.59 | 1.5 | –
308.15 K, m1 = 0.63 | 1.59 | –
308.15 K, m1 = 0.67 | 1.69 | –
308.15 K, m1 = 0.7 | 1.76 | –
308.15 K, m1 = 0.74 | 1.85 | –
308.15 K, m1 = 0.78 | 1.95 | –
308.15 K, m1 = 0.83 | 2.06 | –
308.15 K, m1 = 0.87 | 2.14 | –
308.15 K, m1 = 0.91 | 2.22 | –
308.15 K, m1 = 0.95 | 2.32 | –
308.15 K, m1 = 1 | 2.41 | –
308.15 K, m1 = 1.05 | 2.51 | –
308.15 K, m1 = 1.11 | 2.62 | –
308.15 K, m1 = 1.18 | 2.71 | –
308.15 K, m1 = 1.25 | 2.8 | –
308.15 K, m1 = 1.33 | 2.9 | –
308.15 K, m1 = 1.43 | 2.98 | –
308.15 K, m1 = 1.54 | 3.08 | –
308.15 K, m1 = 1.67 | 3.16 | –
308.15 K, m1 = 1.82 | 3.27 | –
308.15 K, m1 = 2 | 3.39 | –
313.15 K, m1 = 0.62 | 1.66 | –
313.15 K, m1 = 0.66 | 1.78 | –
313.15 K, m1 = 0.7 | 1.91 | –
313.15 K, m1 = 0.74 | 2 | –
313.15 K, m1 = 0.78 | 2.12 | –
313.15 K, m1 = 0.83 | 2.24 | –
313.15 K, m1 = 0.89 | 2.38 | –
313.15 K, m1 = 0.95 | 2.54 | –
313.15 K, m1 = 1 | 2.64 | –
313.15 K, m1 = 1.05 | 2.76 | –
313.15 K, m1 = 1.11 | 2.87 | –
313.15 K, m1 = 1.18 | 3.01 | –
313.15 K, m1 = 1.25 | 3.13 | –
313.15 K, m1 = 1.33 | 3.24 | –
313.15 K, m1 = 1.43 | 3.34 | –
313.15 K, m1 = 1.54 | 3.46 | –
313.15 K, m1 = 1.67 | 3.58 | –
313.15 K, m1 = 1.74 | 3.64 | –
313.15 K, m1 = 1.82 | 3.7 | –
313.15 K, m1 = 1.9 | 3.77 | –
313.15 K, m1 = 2 | 3.84 | –
318.15 K, m1 = 0.61 | 1.79 | –
318.15 K, m1 = 0.65 | 1.91 | –
318.15 K, m1 = 0.69 | 2.05 | –
318.15 K, m1 = 0.74 | 2.19 | –
318.15 K, m1 = 0.78 | 2.33 | –
318.15 K, m1 = 0.83 | 2.45 | –
318.15 K, m1 = 0.89 | 2.61 | –
318.15 K, m1 = 0.95 | 2.78 | –
318.15 K, m1 = 1 | 2.9 | –
318.15 K, m1 = 1.05 | 3.04 | –
318.15 K, m1 = 1.11 | 3.18 | –
318.15 K, m1 = 1.18 | 3.33 | –
318.15 K, m1 = 1.25 | 3.47 | –
318.15 K, m1 = 1.33 | 3.61 | –
318.15 K, m1 = 1.43 | 3.76 | –
318.15 K, m1 = 1.54 | 3.91 | –
318.15 K, m1 = 1.67 | 4.04 | –
318.15 K, m1 = 1.74 | 4.11 | –
318.15 K, m1 = 1.82 | 4.19 | –
318.15 K, m1 = 1.9 | 4.26 | –
318.15 K, m1 = 2 | 4.32 | –
323.15 K, m1 = 0.57 | 1.86 | –
323.15 K, m1 = 0.61 | 1.97 | –
323.15 K, m1 = 0.65 | 2.09 | –
323.15 K, m1 = 0.69 | 2.24 | –
323.15 K, m1 = 0.74 | 2.4 | –
323.15 K, m1 = 0.78 | 2.55 | –
323.15 K, m1 = 0.83 | 2.72 | –
323.15 K, m1 = 0.89 | 2.87 | –
323.15 K, m1 = 0.95 | 3.03 | –
323.15 K, m1 = 1 | 3.16 | –
323.15 K, m1 = 1.05 | 3.31 | –
323.15 K, m1 = 1.11 | 3.47 | –
323.15 K, m1 = 1.18 | 3.66 | –
323.15 K, m1 = 1.25 | 3.84 | –
323.15 K, m1 = 1.33 | 4.03 | –
323.15 K, m1 = 1.43 | 4.21 | –
323.15 K, m1 = 1.54 | 4.38 | –
323.15 K, m1 = 1.6 | 4.48 | –
323.15 K, m1 = 1.67 | 4.57 | –
323.15 K, m1 = 1.74 | 4.65 | –
323.15 K, m1 = 1.82 | 4.73 | –
323.15 K, m1 = 1.9 | 4.81 | –
323.15 K, m1 = 2 | 4.89 | –
